This note sets out measurements from paper PMC9897788, “Design, synthesis and cytotoxic evaluation of novel bis-thiazole derivatives as preferential Pim1 kinase inhibitors with in vivo and in silico study” (Journal of Enzyme Inhibition and Medicinal Chemistry, 2023).

Holding throughout (assay): NCI 60 cell one-dose screening (SRB)
Common to all, as to assay type: cell-based

One experiment relates to A498. The settings on record: Homo sapiens; A498, Renal Cancer; single dose 10 µM, 48 h; read-out: Percentage of cellular growth inhibition. On the procedure: (§1) The 60 cancerous cell panel screening was performed following the Developmental Therapeutics Program (DTP) of the National Cancer Institute (NIH-NCI), USA. A single dose of 10 µM was used to perform the screening at 48 h incubation and the results were achieved as cancerous cell growth percentage relative to the no-drug control that was converted to an inhibition percentage by subtracting from 100.The cancerous cell lines were grown in RPMI 1640 medium containing 5% foetal bovine serum and 2 mM L-glutamine at 37 °C, 5% CO2, 95% air and 100% relative humidity for 24 h prior to addition of the tested compounds. After 24 h, two plates of each cell line were fixed in situ with TCA to represent a measurement of the cell population for each cell line at the time of drug addition (Tz). Compounds were dissolved in DMSO at 400-fold the desired final maximum test concentration and stored frozen prior to use. At the time of drug addition, an aliquot of frozen concentrate was thawed and diluted to twice the desired final maximum test concentration with complete medium containing 50 µg/mL gentamicin. Aliquots of 100 µL of the compounds dilution was added to the appropriate micro titre wells already containing 100 µL of medium, resulting in the required final drug concentrations of 10 µM. Following compounds addition, the plates were incubated for an additional 48 h at 37 °C, 5% CO2, 95% air, and 100% relative humidity. For adherent cells, the assay was terminated by the addition of cold TCA. Cells were fixed in situ by the gentle addition of 50 µL of cold 50% (w/v) TCA (final concentration, 10% TCA) and incubated for 60 min at 4 °C. The supernatant was discarded, and the plates were washed five times with tap water and air dried. Sulphorhodamine B (SRB) solution (100 µL) at 0.4% (w/v) in 1% acetic acid is added to each well, and plates are incubated for 10 min at room temperature. After staining, unbound dye was removed by washing five times with 1% acetic acid and the plates were air dried. Bound stain was subsequently solubilised with 10 mM trizma base, and the absorbance was read on an automated plate reader at a wavelength of 515 nm. For suspension cells, the methodology was the same except that the assay was terminated by fixing settled cells at the bottom of the wells by gently adding 50 µL of 80% TCA (final concentration, 16% TCA). Using the seven absorbance measurements [time zero, (Tz), control growth, I, and test growth in the presence of drug at the five concentration levels (Ti)], the percentage growth was calculated as: [(Ti−Tz)/(C−Tz)]×100 for concentrations for which Ti>/=Tz [(Ti−Tz)/Tz]×100 for concentrations for which Ti<Tz.

In the next experiment the test system is ACHN. The settings on record: Homo sapiens, Renal Cancer, single dose 10 µM, 48 h, read-out: Percentage of cellular growth inhibition. As for the experimental part: as §1
The test system of a further experiment is CCRF-CEM. The conditions noted are these: Homo sapiens, Leukemia, single dose 10 µM, 48 h, read-out: Percentage of cellular growth inhibition. On the procedure: as §1
The next experiment concerns DU-145. The conditions noted are these: Homo sapiens; DU-145, Prostate Cancer; single dose 10 µM, 48 h; read-out: Percentage of cellular growth inhibition. As for the experimental part: as §1
The test system of a further experiment is HCT-116. The settings on record: Homo sapiens; HCT-116, Colon Cancer; single dose 10 µM, 48 h; read-out: Percentage of cellular growth inhibition. As for the experimental part: as §1
The next experiment deals with HCT-15. The settings on record: Homo sapiens; HCT-15, Colon Cancer; single dose 10 µM, 48 h; read-out: Percentage of cellular growth inhibition. On the procedure: as §1
A further experiment has as its system HL-60(TB). The conditions noted are these: Homo sapiens, Leukemia, single dose 10 µM, 48 h, read-out: Percentage of cellular growth inhibition. On the procedure: as §1
In a further experiment the test system is HOP-92. The settings on record: Homo sapiens, HOP-92, 48 h, HOP-92, Non-Small Cell Lung Cancer, single dose 10 µM, read-out: Percentage of cellular growth inhibition. On the procedure:
as §1

The test system of a further experiment is HT29. The conditions noted are these: Homo sapiens, HT-29; HT29, Colon Cancer; single dose 10 µM, 48 h; read-out: Percentage of cellular growth inhibition. As for the experimental part:
as §1

The test system of a further experiment is KM12. The settings on record: Homo sapiens; KM12, Colon Cancer; single dose 10 µM, 48 h; read-out: Percentage of cellular growth inhibition. On the procedure: as §1
A further experiment concerns MALME-3M. The conditions noted are these: Homo sapiens, Melanoma, single dose 10 µM, 48 h, read-out: Percentage of cellular growth inhibition. On the procedure:
as §1

The test system of another experiment is MDA-MB-231/ATCC. The conditions noted are these: Homo sapiens, Breast Cancer, single dose 10 µM, 48 h, read-out: Percentage of cellular growth inhibition. As for the experimental part: as §1
The next experiment relates to MOLT-4. The conditions noted are these: Homo sapiens; MOLT-4, Leukemia; single dose 10 µM, 48 h; read-out: Percentage of cellular growth inhibition. On the procedure:
as §1

The subject of a further experiment is OVCAR-4. The conditions noted are these: Homo sapiens; OVCAR-4, Ovarian Cancer; single dose 10 µM, 48 h; read-out: Percentage of cellular growth inhibition. As for the experimental part: as §1
Another experiment concerns OVCAR-5. The conditions noted are these: Homo sapiens; OVCAR-5, Ovarian Cancer; single dose 10 µM, 48 h; read-out: Percentage of cellular growth inhibition. As for the experimental part: as §1
The subject of another experiment is PC-3. The settings on record: Homo sapiens; PC-3, Prostate Cancer; single dose 10 µM, 48 h; read-out: Percentage of cellular growth inhibition. As for the experimental part: as §1
For another experiment, the system named is RPMI-8226. The conditions noted are these: Homo sapiens; RPMI-8226, Leukemia; single dose 10 µM, 48 h; read-out: Percentage of cellular growth inhibition. As for the experimental part: as §1
The test system of another experiment is SK-MEL-28. The conditions noted are these: Homo sapiens; SK-MEL-28, Melanoma; single dose 10 µM, 48 h; read-out: Percentage of cellular growth inhibition. As for the experimental part:
as §1

The next experiment relates to SNB-19. The conditions noted are these: Homo sapiens; SNB-19, CNS Cancer; single dose 10 µM, 48 h; read-out: Percentage of cellular growth inhibition. On the procedure:
as §1

Another experiment deals with UACC-62. The settings on record: Homo sapiens; UACC-62, Melanoma; single dose 10 µM, 48 h; read-out: Percentage of cellular growth inhibition. As for the experimental part:
as §1

The next experiment relates to UO-31. The conditions noted are these: Homo sapiens; UO-31, Renal Cancer; single dose 10 µM, 48 h; read-out: Percentage of cellular growth inhibition. On the procedure: as §1

`Clc1ccc(-c2cs/c(=N\c3ccccc3)n2-c2cccc(-n3c(-c4ccc(Cl)cc4)cs/c3=N\c3ccccc3)c2)cc1` [8c, N,N’-(3,3’-(1,3-phenylene)bis(4–(4-chlorophenyl)thiazole-3(3H)-yl-2(3H)-ylidene))dianiline]: the inhibition (commonly the drop in the measured response relative to a control, in per cent) at 10 µM was -16.3% in the experiment with A498; -1.5% in the experiment with ACHN; 32.6% in the experiment on CCRF-CEM; 19.2% in the experiment with DU-145; 15.7% with HCT-116; -1.3% in the experiment with HCT-15. Moreover, the inhibition at 10 µM was 41.8% in the experiment on HL-60(TB); 2.4% with HOP-92; 12.4% in the experiment on HT29; 8.8% in the experiment with KM12; 6.7% in the experiment on MALME-3M; -4.5% in the experiment on MDA-MB-231/ATCC. In addition, the inhibition at 10 µM in the experiment on MOLT-4 is 12.3%; in the experiment with OVCAR-4, 12%; with OVCAR-5 it was -2.6%; in the experiment with PC-3, 28.9%; with RPMI-8226 it was 37%; with SK-MEL-28 it was -1%. Moreover, the values for the inhibition at 10 µM with SNB-19, in the experiment on UACC-62 and in the experiment on UO-31 were 3.8%, 10.5% and 17.8%, respectively.
As to `NC(=S)Nc1cccc(NC(N)=S)c1` [compound 2, 1,1′-(1,3-phenylene)bis(thiourea)], the inhibition at 10 µM in the experiment with A498 was -1.2%; with ACHN, 3.7%; with CCRF-CEM, 3.6%; with DU-145, -1.2%; in the experiment on HCT-116 it was -7%; with HCT-15 it was 4.9%. In addition, the inhibition at 10 µM was 0.9% in the experiment with HL-60(TB); -4.5% with HOP-92; -13.3% in the experiment on HT29; 12.4% in the experiment on KM12; 15.7% with MALME-3M; 10.3% in the experiment with MDA-MB-231/ATCC. Also, the inhibition at 10 µM in the experiment on MOLT-4 is 10.3%; in the experiment with OVCAR-4, 5.4%; in the experiment on OVCAR-5, -3.6%; in the experiment with PC-3 it was -2.4%; with RPMI-8226, -9.5%; with SK-MEL-28, -3.8%. Also, the inhibition at 10 µM with SNB-19 is 11.7%; with UACC-62 it was 29.5%; with UO-31 it was 30%.
`S=C(Nc1ccccc1)Nc1cccc(NC(=S)Nc2ccccc2)c1` [compound 7, 1,1′-(1,3-phenylene)bis(3-phenylthiourea)]: the inhibition at 10 µM was -17.7% in the experiment with A498; -3.8% in the experiment with ACHN; 56.8% in the experiment with CCRF-CEM; -10.2% in the experiment on DU-145; -11.8% in the experiment on HCT-116; 0.8% in the experiment with HCT-15. For the same molecule, the inhibition at 10 µM in the experiment on HL-60(TB) is -2.5%; in the experiment with HOP-92 it was -15.7%; with HT29, -26.3%; with KM12, 1%; in the experiment on MALME-3M it was 10.8%; in the experiment on MDA-MB-231/ATCC, -0.2%. For the same molecule, the inhibition at 10 µM was -5.8% in the experiment with MOLT-4; -6.6% in the experiment with OVCAR-4; -4.9% in the experiment with OVCAR-5; -24% in the experiment on PC-3; -19.2% with RPMI-8226; -9.8% in the experiment on SK-MEL-28. Further, the inhibition at 10 µM in the experiment on SNB-19 amounted to 3.4%; with UACC-62 it was 5.8%; with UO-31, 14.6%.
